Data on 17 compounds can be found in patent US20160046618A1, “Cyclopropyl Fused Thiazin-2-Amine Compounds as Beta-Secretase Inhibitors and Methods of Use” (AMGEN INC., priority 2014, published 2016).

A value given as a limit tells only on which side of the number the result lay.

Assay [1] concerns the target human recombinant BACE1 (Homo sapiens (Human), UniProt P56817). The assay is described as follows: In vitro enzymatic BACE1 FRET assay. It counts as biochemical. The note with it: read-out: IC50 IP (μM) BACE1 enzyme. The procedure, abridged: (§1)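 Reactions were initiated by adding 50 nM of a peptide carrying fluorophore and quencher on opposite sides of the cleavage site and ran for one hour. Tris buffer then brought the pH to neutrality, ending the reaction, and fluorescence was measured (488 nm excitation, 590 nm emission).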

The target in assay [2] is human recombinant BACE2 (Homo sapiens (Human), UniProt Q9Y5Z0). The experiment in a line: In vitro enzymatic BACE2 FRET assay. Format: biochemical. The note with it: read-out: IC50 IP (μM) BACE2 enzyme. The procedure, abridged:
as §1

In assay [3] the test system is Aβ40 in conditioned medium of cells stably expressing Amyloid Precursor Protein (APP). The assay is described as follows: In vitro BACE-1 cell-based assay (Aβ40 sandwich ELISA). The note with it: read-out: IC50 IP (μM) BACE1 cell. The method in brief:
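Aβ40 in supernatants measured by time-resolved fluorescence sandwich ELISA, with pAb40 as capture and biotin-6E10 as detector antibody, each incubated at 4 °C.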
(In general: In an ELISA, binding on a coated surface is turned into a signal by an enzyme label.)

The target of assay [4] is Recombinant Cat D (Homo sapiens (Human), UniProt P07339). The assay is described as follows: In vitro enzymatic Cathepsin D (Cat D) FRET assay. It counts as biochemical. Particulars: read-out: IC50 IP (μM) CatD. The procedure, abridged: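 Assay pH is 3.5 (0.05 M citrate, 5 mM CHAPS, 10% DMSO final) with Cat D from CHO cells. A 20 nM quenched peptide substrate is cleaved over one hour; the reaction is ended with Tris and read by fluorescence (ex 500, em 580 nm).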
Chain of Recombinant Cat D (P07339 65-412): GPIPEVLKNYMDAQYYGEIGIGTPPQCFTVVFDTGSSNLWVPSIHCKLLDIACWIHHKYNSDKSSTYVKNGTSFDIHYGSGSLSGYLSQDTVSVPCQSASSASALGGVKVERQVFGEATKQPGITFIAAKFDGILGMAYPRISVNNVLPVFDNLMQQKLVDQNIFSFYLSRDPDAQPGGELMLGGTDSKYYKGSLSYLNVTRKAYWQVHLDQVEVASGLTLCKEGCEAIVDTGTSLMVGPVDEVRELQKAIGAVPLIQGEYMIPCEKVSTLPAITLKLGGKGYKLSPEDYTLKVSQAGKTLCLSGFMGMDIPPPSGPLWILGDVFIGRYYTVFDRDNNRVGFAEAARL

Chain of human recombinant BACE2 (Q9Y5Z0 63-518): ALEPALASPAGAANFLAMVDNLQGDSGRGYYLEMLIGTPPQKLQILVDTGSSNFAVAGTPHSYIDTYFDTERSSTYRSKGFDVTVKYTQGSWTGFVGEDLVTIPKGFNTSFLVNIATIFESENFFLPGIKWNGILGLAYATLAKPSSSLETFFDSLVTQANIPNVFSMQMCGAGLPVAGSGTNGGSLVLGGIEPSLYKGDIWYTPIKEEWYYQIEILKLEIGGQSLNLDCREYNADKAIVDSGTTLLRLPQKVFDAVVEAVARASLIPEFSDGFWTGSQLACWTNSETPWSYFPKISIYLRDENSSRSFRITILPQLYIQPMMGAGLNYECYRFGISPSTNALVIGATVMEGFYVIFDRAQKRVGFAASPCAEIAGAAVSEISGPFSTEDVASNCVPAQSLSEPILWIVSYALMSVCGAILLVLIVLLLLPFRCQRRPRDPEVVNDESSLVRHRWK
Chain of human recombinant BACE1 (P56817 46-501): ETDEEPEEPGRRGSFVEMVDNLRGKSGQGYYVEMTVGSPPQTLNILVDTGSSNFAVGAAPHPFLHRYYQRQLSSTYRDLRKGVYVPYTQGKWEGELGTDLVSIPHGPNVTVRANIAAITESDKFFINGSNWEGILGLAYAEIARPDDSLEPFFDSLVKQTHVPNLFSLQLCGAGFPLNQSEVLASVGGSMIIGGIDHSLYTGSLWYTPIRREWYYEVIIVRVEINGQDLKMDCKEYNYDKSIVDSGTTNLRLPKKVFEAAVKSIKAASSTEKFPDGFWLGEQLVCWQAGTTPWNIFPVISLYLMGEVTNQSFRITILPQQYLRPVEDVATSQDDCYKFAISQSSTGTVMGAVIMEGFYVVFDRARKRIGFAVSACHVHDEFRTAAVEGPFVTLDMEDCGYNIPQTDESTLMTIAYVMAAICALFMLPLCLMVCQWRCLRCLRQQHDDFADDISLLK

The term IC50 denotes the point on the concentration scale where inhibition reaches its midpoint. As for `Cc1nc(OCc2ncco2)cnc1C(=O)Nc1ccc(F)c([C@@]2(C)N=C(N)S[C@@]3(CF)C[C@H]32)c1` [Example 837, N-(3-((1S,5S,6S)-3-amino-1-(fluoromethyl)-5-methyl-2-thia-4-azabicyclo[4.1.0]hept-3-en-5-yl)-4-fluorophenyl)-3-methyl-5-(1,3-oxazol-2-ylmethoxy)-2-pyrazinecarboxamide], the IC50 was 0.00253 µM in assay [1], 0.0259 µM in assay [2], 0.00325 µM in assay [3] and 1070 µM in assay [4].
Turning to `COC[C@]12C[C@H]1[C@@](C)(c1cc(Nc3ncnc4cc(Cl)cnc34)cnc1F)N=C(N)S2` [Example 844, (1S,5S,6S)-5-(5-((7-chloropyrido[3,2-d]pyrimidin-4-yl)amino)-2-fluoropyridin-3-yl)-1-(methoxymethyl)-5-methyl-2-thia-4-azabicyclo[4.1.0]hept-3-en-3-amine], the IC50 worked out at 0.0219 µM in assay [1], 0.0108 µM in assay [2], 0.0145 µM in assay [3] and 1780 µM in assay [4].
As for `C#CCOc1cnc(C(=O)Nc2cnc(F)c([C@@]3(C)N=C(N)S[C@@]4(COC)C[C@H]43)c2)c(C)n1` [Example 845, N-(5-((1S,5S,6S)-3-amino-1-(methoxymethyl)-5-methyl-2-thia-4-azabicyclo[4.1.0]hept-3-en-5-yl)-6-fluoro-3-pyridinyl)-3-methyl-5-(2-propyn-1-yloxy)-2-pyrazinecarboxamide], the IC50 in assay [1] was 0.0026 µM; in assay [2] it was 0.0257 µM; in assay [3], 0.00473 µM; in assay [4], 1710 µM.
Regarding `COC[C@]12C[C@H]1[C@@](C)(c1cc(Nc3ncnc4cc(C#N)cnc34)cnc1F)N=C(N)S2` [Example 846, 4-((5-((1S,5S,6S)-3-amino-1-(methoxymethyl)-5-methyl-2-thia-4-azabicyclo[4.1.0]hept-3-en-5-yl)-6-fluoro-3-pyridinyl)amino)pyrido[3,2-d]pyrimidine-7-carbonitrile], the IC50 is 0.0282 µM in assay [1], 0.0494 µM in assay [2], 0.0111 µM in assay [3] and over 400 µM in assay [4].
As to `COC[C@]12C[C@H]1[C@@](C)(c1cc(Nc3nccc4cc(C#N)cnc34)cnc1F)N=C(N)S2` [Example 847, 8-((5-((1S,5S,6S)-3-amino-1-(methoxymethyl)-5-methyl-2-thia-4-azabicyclo[4.1.0]hept-3-en-5-yl)-6-fluoro-3-pyridinyl)amino)-1,7-naphthyridine-3-carbonitrile], the IC50 was 0.0113 µM in assay [1], 0.00955 µM in assay [2], 0.00675 µM in assay [3] and 1910 µM in assay [4].
The matching figures for `C#CCOc1cnc2c(Nc3cnc(F)c([C@@]4(C)N=C(N)S[C@@]5(COC)C[C@H]54)c3)nccc2n1` [Example 848, N-(5-((1S,5S,6S)-3-amino-1-(methoxymethyl)-5-methyl-2-thia-4-azabicyclo[4.1.0]hept-3-en-5-yl)-6-fluoro-3-pyridinyl)-2-(2-propyn-1-yloxy)pyrido[3,4-b]pyrazin-5-amine]: 0.00136 µM, 0.0335 µM, 0.00134 µM and 773 µM.
Consider `COC[C@]12C[C@H]1[C@@](C)(c1cc(Nc3nccc4nc(OCc5ncco5)cnc34)cnc1F)N=C(N)S2` [Example 849, N-(5-((1S,5S,6S)-3-amino-1-(methoxymethyl)-5-methyl-2-thia-4-azabicyclo[4.1.0]hept-3-en-5-yl)-6-fluoro-3-pyridinyl)-2-(1,3-oxazol-2-ylmethoxy)pyrido[3,4-b]pyrazin-5-amine], for which the IC50 in assay [1] is 0.00343 µM; in assay [2], 0.0463 µM; in assay [3] it was 0.0017 µM; in assay [4] it was 1530 µM.
The matching figures for `[2H]C([2H])([2H])OC[C@]12C[C@H]1[C@@](C)(c1cc(NC(=O)c3ncc(OCC#C)nc3C)cnc1F)N=C(N)S2` [Example 850, N-(5-((1S,5S,6S)-3-amino-5-methyl-1-(((~2~H_3_)methyloxy)methyl)-2-thia-4-azabicyclo[4.1.0]hept-3-en-5-yl)-6-fluoro-3-pyridinyl)-3-methyl-5-(2-propyn-1-yloxy)-2-pyrazinecarboxamide]: 0.00121 µM, 0.00886 µM, 0.00207 µM and 1150 µM.
With `[2H]C([2H])([2H])OC[C@]12C[C@H]1[C@@](C)(c1cc(NC(=O)c3cnc(OCC#C)cn3)cnc1F)N=C(N)S2` [Example 851, N-(5-((1S,5S,6S)-3-amino-5-methyl-1-(((~2~H_3_)methyloxy)methyl)-2-thia-4-azabicyclo[4.1.0]hept-3-en-5-yl)-6-fluoro-3-pyridinyl)-5-(2-propyn-1-yloxy)-2-pyrazinecarboxamide], the IC50 in assay [1] came to 0.000574 µM; in assay [2], 0.0184 µM; in assay [3], 0.000624 µM; in assay [4] it was 468 µM.
Take `[2H]C([2H])([2H])OC[C@]12C[C@H]1[C@@](C)(c1cc(Nc3ncnc4cc(Cl)cnc34)cnc1F)N=C(N)S2` [Example 852, N-(5-((1S,5S,6S)-3-amino-5-methyl-1-(((~2~H_3_)methyloxy)methyl)-2-thia-4-azabicyclo[4.1.0]hept-3-en-5yl)-6-fluoro-3-pyridinyl)-7-chloropyrido[3,2-d]pyrimidin-4-amine]: the IC50 in assay [1] was 0.0127 µM; in assay [2] it was 0.00758 µM; in assay [3], 0.0101 µM; in assay [4] it was 1680 µM.
The matching figures for `[2H]C([2H])([2H])OC[C@]12C[C@H]1[C@@](C)(c1cc(Nc3nccc4nc(OCC#C)cnc34)cnc1F)N=C(N)S2` [Example 853, N-(5-((1S,5S,6S)-3-amino-5-methyl-1-(((~2~H_3_)methyloxy)methyl)-2-thia-4-azabicyclo[4.1.0]hept-3-en-5-yl)-6-fluoro-3-pyridinyl)-2-(2-propyn-1-yloxy)pyrido[3,4-b]pyrazin-5-amine]: 0.000878 µM, 0.0244 µM, 0.000961 µM and 791 µM.
`[2H]C([2H])([2H])OC[C@]12C[C@H]1[C@@](C)(c1cc(Nc3nccc4nc(OC([2H])([2H])C#C)cnc34)cnc1F)N=C(N)S2` [Example 854, N-(5-((1S,5S,6S)-3-amino-5-methyl-1-(((~2~H_3_)methyloxy)methyl)-2-thia-4-azabicyclo[4.1.0]hept-3-en-5-yl)-6-fluoro-3-pyridinyl)-2-((1,1-~2~H_2_)-2-propyn-1-yloxy)pyrido[3,4-b]pyrazin-5-amine]: the IC50 came out at 0.00144 µM in assay [1], 0.0383 µM in assay [2], 0.00134 µM in assay [3] and 1240 µM in assay [4].
On to `COC(=O)c1cc(NC(=O)c2ccc(Cl)cn2)cc([C@@]2(C)N=C(N)S[C@@]3(C(=O)OC)C[C@H]32)c1F` [Example 855, (1S,5S,6S)-methyl 3-amino-5-(5-(5-chloropicolinamido)-2-fluoro-3-(methoxycarbonyl)phenyl)-5-methyl-2-thia-4-azabicyclo[4.1.0]hept-3-ene-1-carboxylate], for which the IC50 in assay [1] is 0.198 µM; in assay [2], 0.0224 µM; in assay [3] it was 0.294 µM; in assay [4], over 400 µM.
For the compound `C#CCOc1cnc2c(Nc3cc(C(=O)OC)c(F)c([C@@]4(C)N=C(N)S[C@@]5(C(=O)OC)C[C@H]54)c3)nccc2n1` [Example 856, (1S,5S,6S)-methyl 3-amino-5-(2-fluoro-3-(methoxycarbonyl)-5-((2-(prop-2-yn-1-yloxy)pyrido[3,4-b]pyrazin-5-yl)amino)phenyl)-5-methyl-2-thia-4-azabicyclo[4.1.0]hept-3-ene-1-carboxylate], the IC50 in assay [1] stood at 0.071 µM; in assay [2], 0.657 µM; in assay [3], 0.249 µM; in assay [4], 116 µM.
As to `C#CCOc1cnc2c(Nc3cc(C(=O)OC)c(F)c([C@@]4(C)N=C(N)S[C@@]5(CO)C[C@H]54)c3)nccc2n1` [Example 857, methyl 3-((1S,5S,6S)-3-amino-1-(hydroxymethyl)-5-methyl-2-thia-4-azabicyclo[4.1.0]hept-3-en-5-yl)-2-fluoro-5-((2-(prop-2-yn-1-yloxy)pyrido[3,4-b]pyrazin-5-yl)amino)benzoate], the IC50 in assay [1] is 0.0678 µM; in assay [2] it was 0.346 µM; in assay [3], 0.0156 µM; in assay [4], 2520 µM.
Turning to `C[C@]1(c2cc(NC(=O)c3ccc(Cl)cn3)cc(CO)c2F)N=C(N)S[C@@]2(CO)C[C@H]21` [Example 858, N-(3-((1S,5S,6S)-3-amino-1-(hydroxymethyl)-5-methyl-2-thia-4-azabicyclo[4.1.0]hept-3-en-5-yl)-4-fluoro-5-(hydroxymethyl)phenyl)-5-chloropicolinamide], the IC50 was 0.00085 µM in assay [1], under 0.00203 µM in assay [2], 0.000487 µM in assay [3] and over 400 µM in assay [4].
The like results for `C#CCOc1cnc(C(=O)Nc2cnc(F)c([C@@]3(C)N=C(N)S[C@@]4(COC)C[C@H]43)c2)cn1` [Example 859, N-(5-((1S,5S,6S)-3-amino-1-(methoxymethyl)-5-methyl-2-thia-4-azabicyclo[4.1.0]hept-3-en-5-yl)-6-fluoro-3-pyridinyl)-5-(2-propyn-1-yloxy)-2-pyrazinecarboxamide] were, in that order, 0.000799 µM, 0.0194 µM, 0.000762 µM and 590 µM.
